pEC50: −log10 of the molar value. Where two headings read alike, the source gives them in different places.
Legend:
ST88 cells [1] = conditions: ST88 cells (NF1+/−); cited from earlier work
NF90 cells = NF90 cells (NF1+/−); cited from earlier work
[2] = tested on: phospho-MEK in ST88 cells; assay: phospho-MEK ELISA in ST88 cells; format: cell-based
Text: (§1) The ST88 cell line (NF1^+/−) contains elevated levels of Ras-GTP and is often used as a pre-clinical model for NF1. […] Pathway inhibition and anti-proliferative activity of RAF265 in ST88 cells.

[3] = tested on: phospho-ERK in ST88 cells; assay: phospho-ERK ELISA in ST88 cells; format: cell-based
Text: as §1

ST88 cells [4] = assay: Proliferation of ST88 cells; format: cell-based
Text: as §1

[5] = tested on: VEGF-induced angiogenesis in Matrigel plug; assay: VEGF-CHO Matrigel plug angiogenesis model in mice (hemoglobin, Drabkin's reagent); format: in vivo; conditions: treated days 1 and 4, plugs excised day 5
Text: Due to the inhibition of VEGFR-2, RAF265 also has anti-angiogenic activity which may also provide a therapeutic benefit in treating neurofibromas. To confirm that RAF265 inhibits the growth of new blood vessels (i.e., angiogenesis) in vivo, mice were implanted with Matrigel® containing Chinese hamster ovary cells (CHO) overexpressing VEGF and then treated mice with a dose range of RAF265 or a vehicle control (days 1 and 4). In this model, VEGF expressed from the CHO cells induces angiogenesis within the Matrigel® plug. Plugs are excised on day 5 and assayed for hemoglobin using Drabkin's reagent, as a measure of the degree of angiogenesis.

Compound	effect on proliferation (in words) (ST88 cells [1])	levels of phospho-ERK (in words) (ST88 cells [1])	effect on proliferation (in words) (NF90 cells)	levels of phospho-ERK (in words) (NF90 cells)	levels of phospho-MEK after treatment (in words) ([2]; ST88 cells)	pEC50 ([2]; ST88 cells (NF1+/−))	levels of phospho-ERK after treatment (in words) ([3]; ST88 cells)	pEC50 ([3]; ST88 cells (NF1+/−))	effect on proliferation (in words) (ST88 cells [4]; ST88 cells)	pEC50 (ST88 cells [4]; ST88 cells (NF1+/−))	dose giving maximal suppression of hemoglobin content [5]	hemoglobin content of Matrigel plug (in words) [5]
O=C(NOCC1CC1)c1ccc(F)c(F)c1Nc1ccc(I)cc1Cl [CI-1040]	inhibited proliferation	decreased levels of phospho-ERK	inhibited proliferation	decreased levels of phospho-ERK								
Cn1c(Nc2ccc(C(F)(F)F)cc2)nc2cc(Oc3ccnc(-c4ncc(C(F)(F)F)[nH]4)c3)ccc21 [Example 1]					decreased levels	6.82	decreased levels	6.73	inhibition of proliferation	6.68	50 mg/kg	dose-dependent decrease

Reference: US20110092546A1, “SUBSTITUTED BENZIMIDAZOLES FOR NEUROFIBROMATOSIS” (NOVARTIS AG, priority 2008, published 2011)
